# Results reported in article PMC7724566, “Prospects for Clinical Development of Stat5 Inhibitor IST5-002: High Transcriptomic Specificity in Prostate Cancer and Low Toxicity In Vivo” (Cancers, 2020).
# Assays:
# Test in all cases: Radiometric filtration binding cell-free kinase assay
# Format in all cases: biochemical
# Design in all cases: purchased Reaction Biology (JAK1/2/3, TYK2); Luceome Biotechnologies KinaseSeeker (others)
# Settings in all cases: percent activity of kinase after exposure to IST5 1 µM
# [1] = target: JAK1 (Homo sapiens, UniProt P23458)
# Sequence of JAK1 (P23458 whole entry, the tested form may be a part): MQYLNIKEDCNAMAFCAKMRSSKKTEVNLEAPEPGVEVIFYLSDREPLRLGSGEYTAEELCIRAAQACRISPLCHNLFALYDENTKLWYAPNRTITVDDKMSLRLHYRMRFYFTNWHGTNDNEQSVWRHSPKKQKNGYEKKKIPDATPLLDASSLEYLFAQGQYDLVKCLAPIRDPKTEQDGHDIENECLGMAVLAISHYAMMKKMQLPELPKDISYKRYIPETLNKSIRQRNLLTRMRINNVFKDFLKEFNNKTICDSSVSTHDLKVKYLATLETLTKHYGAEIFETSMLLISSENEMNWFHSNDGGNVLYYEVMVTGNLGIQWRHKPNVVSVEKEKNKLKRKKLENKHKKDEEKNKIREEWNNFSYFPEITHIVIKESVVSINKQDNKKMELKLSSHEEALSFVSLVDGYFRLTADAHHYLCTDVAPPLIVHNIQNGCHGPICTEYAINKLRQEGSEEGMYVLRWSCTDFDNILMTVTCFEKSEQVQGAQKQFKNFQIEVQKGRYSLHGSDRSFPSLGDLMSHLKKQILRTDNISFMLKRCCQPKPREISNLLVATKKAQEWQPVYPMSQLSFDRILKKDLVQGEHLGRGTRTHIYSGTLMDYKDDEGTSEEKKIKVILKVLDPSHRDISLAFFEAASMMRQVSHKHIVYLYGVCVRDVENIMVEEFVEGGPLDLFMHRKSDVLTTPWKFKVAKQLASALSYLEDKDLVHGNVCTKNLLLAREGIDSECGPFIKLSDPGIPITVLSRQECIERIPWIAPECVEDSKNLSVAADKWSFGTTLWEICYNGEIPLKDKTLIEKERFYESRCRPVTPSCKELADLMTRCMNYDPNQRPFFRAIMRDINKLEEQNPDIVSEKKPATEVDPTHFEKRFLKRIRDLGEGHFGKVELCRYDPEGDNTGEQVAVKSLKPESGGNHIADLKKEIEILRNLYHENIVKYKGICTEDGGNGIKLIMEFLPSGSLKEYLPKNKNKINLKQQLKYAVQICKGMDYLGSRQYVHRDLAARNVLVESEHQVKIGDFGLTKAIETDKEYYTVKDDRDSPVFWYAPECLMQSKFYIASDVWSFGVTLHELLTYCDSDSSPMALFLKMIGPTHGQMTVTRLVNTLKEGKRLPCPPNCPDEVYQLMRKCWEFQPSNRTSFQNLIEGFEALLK
# Experimental: (§1) For Jak1, Jak2, Jak3 and Tyk2, a radiometric filtration binding assay was conducted by Reaction Biologicals (Malvern, PA, USA) (Table 1). This radiometric assay is a cell-free assay which is based on conventional filter-binding assays, directly measuring kinase catalytic activity toward a specific substrate. For evaluation of the activity of the other kinases, the Kinase Seeker Technology was utilized (Luceome Biotechnologies, Tucson, AZ, USA), which is a luminescence-based cell-free assay. In this assay, the reassembly of luciferase fragments is mediated by the interaction of a kinase with an active site-dependent probe. The competitive displacement of the probe by an inhibitor is measured by a change in luminescence signal. Percent activity of each kinase after exposure to IST5 (1 µM) is presented.
# [2] = target: JAK2 (Homo sapiens, UniProt O60674)
# Sequence of JAK2 (O60674 whole entry): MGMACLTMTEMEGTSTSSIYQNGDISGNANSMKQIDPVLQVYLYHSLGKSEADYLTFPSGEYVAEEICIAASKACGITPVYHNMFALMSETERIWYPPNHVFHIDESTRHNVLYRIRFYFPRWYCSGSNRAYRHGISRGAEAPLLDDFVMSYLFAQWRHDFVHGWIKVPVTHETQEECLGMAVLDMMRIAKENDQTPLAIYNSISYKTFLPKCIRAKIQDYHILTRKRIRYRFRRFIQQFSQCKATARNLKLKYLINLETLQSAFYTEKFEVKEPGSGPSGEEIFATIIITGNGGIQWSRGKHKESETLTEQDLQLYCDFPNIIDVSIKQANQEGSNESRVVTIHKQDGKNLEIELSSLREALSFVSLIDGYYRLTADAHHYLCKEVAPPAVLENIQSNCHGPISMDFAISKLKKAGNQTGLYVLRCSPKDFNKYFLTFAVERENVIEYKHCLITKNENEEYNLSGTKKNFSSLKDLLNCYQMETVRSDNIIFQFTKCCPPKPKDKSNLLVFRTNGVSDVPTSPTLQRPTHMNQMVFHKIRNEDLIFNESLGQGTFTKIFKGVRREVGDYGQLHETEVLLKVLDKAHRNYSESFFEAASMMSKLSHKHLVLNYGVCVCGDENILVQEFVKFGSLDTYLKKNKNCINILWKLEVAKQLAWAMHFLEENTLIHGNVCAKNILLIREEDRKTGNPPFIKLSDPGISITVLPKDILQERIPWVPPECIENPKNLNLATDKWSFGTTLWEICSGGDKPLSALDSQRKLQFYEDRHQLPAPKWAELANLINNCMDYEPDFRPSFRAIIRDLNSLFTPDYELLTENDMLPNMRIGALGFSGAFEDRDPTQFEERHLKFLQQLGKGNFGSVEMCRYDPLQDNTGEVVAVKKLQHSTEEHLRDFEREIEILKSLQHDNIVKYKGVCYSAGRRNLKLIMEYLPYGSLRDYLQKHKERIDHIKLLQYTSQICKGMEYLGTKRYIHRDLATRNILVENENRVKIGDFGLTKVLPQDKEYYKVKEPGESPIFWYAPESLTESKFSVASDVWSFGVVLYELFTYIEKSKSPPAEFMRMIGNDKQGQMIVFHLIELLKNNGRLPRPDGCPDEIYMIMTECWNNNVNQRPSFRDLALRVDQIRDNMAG
# Experimental: as §1
# [3] = target: T1, JAK3 (Homo sapiens, UniProt P52333)
# T1 sequence (P52333 1-1124): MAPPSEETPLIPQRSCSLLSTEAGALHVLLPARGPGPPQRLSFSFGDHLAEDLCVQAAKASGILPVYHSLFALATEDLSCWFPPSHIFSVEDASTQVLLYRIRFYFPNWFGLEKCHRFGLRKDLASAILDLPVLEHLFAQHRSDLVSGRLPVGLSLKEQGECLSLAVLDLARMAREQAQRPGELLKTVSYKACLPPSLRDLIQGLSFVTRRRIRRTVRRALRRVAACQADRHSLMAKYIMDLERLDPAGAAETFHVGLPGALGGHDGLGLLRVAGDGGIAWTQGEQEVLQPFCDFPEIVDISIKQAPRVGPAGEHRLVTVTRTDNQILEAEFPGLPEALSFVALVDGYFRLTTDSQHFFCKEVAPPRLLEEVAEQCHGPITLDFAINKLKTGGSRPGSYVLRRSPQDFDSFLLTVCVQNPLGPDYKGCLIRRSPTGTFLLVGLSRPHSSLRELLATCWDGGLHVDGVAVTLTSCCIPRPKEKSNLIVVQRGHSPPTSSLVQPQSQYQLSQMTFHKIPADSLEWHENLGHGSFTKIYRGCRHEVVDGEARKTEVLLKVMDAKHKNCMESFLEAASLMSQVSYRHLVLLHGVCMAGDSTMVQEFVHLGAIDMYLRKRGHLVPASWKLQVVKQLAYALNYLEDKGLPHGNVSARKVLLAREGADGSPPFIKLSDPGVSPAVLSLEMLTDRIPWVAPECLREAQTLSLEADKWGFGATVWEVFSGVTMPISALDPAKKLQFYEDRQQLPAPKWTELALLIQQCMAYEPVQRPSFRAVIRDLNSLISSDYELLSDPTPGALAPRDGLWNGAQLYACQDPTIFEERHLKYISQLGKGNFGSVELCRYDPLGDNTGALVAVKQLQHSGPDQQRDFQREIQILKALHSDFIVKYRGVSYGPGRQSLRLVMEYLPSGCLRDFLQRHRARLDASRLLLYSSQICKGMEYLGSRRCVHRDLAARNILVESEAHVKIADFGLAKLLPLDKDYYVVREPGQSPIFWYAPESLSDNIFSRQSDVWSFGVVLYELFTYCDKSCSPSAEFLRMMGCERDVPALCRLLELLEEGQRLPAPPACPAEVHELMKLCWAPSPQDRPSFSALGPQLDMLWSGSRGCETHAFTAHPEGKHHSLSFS
# Experimental: as §1
# [4] = target: TYK2 (Homo sapiens, UniProt P29597)
# Sequence of TYK2 (P29597 whole entry): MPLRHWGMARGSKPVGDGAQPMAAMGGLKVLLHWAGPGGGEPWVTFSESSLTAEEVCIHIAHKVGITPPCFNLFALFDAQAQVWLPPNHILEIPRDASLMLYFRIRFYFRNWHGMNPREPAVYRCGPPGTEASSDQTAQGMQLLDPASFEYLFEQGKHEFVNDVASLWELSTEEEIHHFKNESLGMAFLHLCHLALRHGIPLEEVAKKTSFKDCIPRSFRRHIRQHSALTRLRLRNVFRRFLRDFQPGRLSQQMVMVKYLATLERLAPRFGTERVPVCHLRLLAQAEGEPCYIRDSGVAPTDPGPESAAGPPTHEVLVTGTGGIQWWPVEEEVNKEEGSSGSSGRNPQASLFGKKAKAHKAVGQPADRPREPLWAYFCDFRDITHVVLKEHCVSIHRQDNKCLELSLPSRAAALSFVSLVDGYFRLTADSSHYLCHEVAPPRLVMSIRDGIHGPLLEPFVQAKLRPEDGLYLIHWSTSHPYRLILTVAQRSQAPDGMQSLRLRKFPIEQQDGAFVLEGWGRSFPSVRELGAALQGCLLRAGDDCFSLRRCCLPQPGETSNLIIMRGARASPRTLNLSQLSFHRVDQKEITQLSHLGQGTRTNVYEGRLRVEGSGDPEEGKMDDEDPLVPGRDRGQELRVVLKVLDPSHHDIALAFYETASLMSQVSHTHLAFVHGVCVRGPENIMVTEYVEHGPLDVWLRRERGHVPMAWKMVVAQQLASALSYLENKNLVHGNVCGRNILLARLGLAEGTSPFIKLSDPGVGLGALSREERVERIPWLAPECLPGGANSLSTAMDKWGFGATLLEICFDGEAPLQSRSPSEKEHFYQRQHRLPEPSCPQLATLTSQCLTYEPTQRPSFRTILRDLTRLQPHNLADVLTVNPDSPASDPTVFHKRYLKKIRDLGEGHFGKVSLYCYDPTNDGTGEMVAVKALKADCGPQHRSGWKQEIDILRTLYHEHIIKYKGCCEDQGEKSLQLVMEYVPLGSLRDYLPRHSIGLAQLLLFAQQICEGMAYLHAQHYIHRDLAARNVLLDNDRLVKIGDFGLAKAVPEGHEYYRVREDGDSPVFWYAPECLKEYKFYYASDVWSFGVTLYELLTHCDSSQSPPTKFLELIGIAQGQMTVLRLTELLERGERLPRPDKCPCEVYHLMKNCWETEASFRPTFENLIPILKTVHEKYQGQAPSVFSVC
# Experimental: as §1
compound,measurement,setting,value
O=P(O)(O)OCC1OC(n2cnc3c(NCc4ccccc4)ncnc32)C(O)C1O (stereo not shown) [IST5],Activity,[1],96.2%
same,Activity,[2],95.4%
same,Activity,[3],100.0%
same,Activity,[4],100.0%
